The results in this text go back to patent US7598382B2, “Aryl substituted imidazoquinolines” (Coley Pharmaceutical Group, Inc., priority 2002, dated 2009).

The subject of series [1] is tumor necrosis factor-α (TNF-α) production in mouse macrophage cell line Raw 264.7. Briefly: TNF-α inhibition in mouse cells, single concentration assay (LPS-stimulated Raw 264.7). It counts as cell-based. As to conditions: Raw 264.7 cells stimulated by LPS (EC70), compound 5 μM (single concentration) or 0.03-10 μM (dose response), 18 to 24 hours, ELISA. On the procedure: The compounds of Formulas I and II are useful as immune response modifiers (IRMs) due to their ability to modulate cytokine biosynthesis (e.g., induce or inhibit the biosynthesis or production of one or more cytokines) and otherwise modulate the immune response when administered to animals. Compounds can be tested per the test procedures described in the Examples Section. Compounds can be tested for induction of cytokine biosynthesis by incubating human PBMC in a culture with the compound(s) at a concentration range of 30 to 0.014 μM and analyzing for interferon (α) or tumor necrosis factor (α) in the culture supernatant. Compounds can be tested for inhibition of cytokine biosynthesis by incubating mouse macrophage cell line Raw 264.7 in a culture with the compound(s) at a single concentration of, for example, 5 μM and analyzing for tumor necrosis factor (α) in the culture supernatant. Compounds can be further tested for dose response by running the test at several compound concentrations, for example, 0.03, 0.1, 0.3, 1, 3, 5, and 10 μM. The ability to modulate cytokine biosynthesis makes the compounds useful in the treatment of a variety of conditions such as viral diseases, neoplastic diseases, and autoimmune diseases that are responsive to such changes in the immune response.
The mouse macrophage cell line Raw 264.7 is used to assess the ability of compounds to inhibit tumor necrosis factor-α (TNF-α) production upon stimulation by lipopolysaccharide (LPS).
Raw cells (ATCC) are harvested by gentle scraping and then counted. The cell suspension is brought to 3×10^5 cells/mL in RPMI with 10% fetal bovine serum (FBS). […]
The compounds are solubilized in dimethyl sulfoxide (DMSO). […] LPS (Lipopolysaccaride from Salmonella typhimurium, Sigma-Aldrich) is diluted with colorless RPMI to the EC70 concentration as measured by a dose response assay. […]
Following the incubation the supernatant is removed with a pipet. TNF-α concentration is determined by ELISA using a mouse TNF-α kit (from Biosource International, Camarillo, Calif.). […]

Broadly, the melting point is the temperature, or range, at which the solid turns liquid. The molecule `CC(C)Cn1cnc2c(N)nc3ccc(-c4cccnc4)cc3c21` [Example 14, 1-Isobutyl-8-(pyridin-3-yl)-1H-imidazo[4,5-c]quinolin-4-amine] returned a melting point of 244 to 246 °C. Also, in series [1], the “modulate cytokine biosynthesis by inhibiting production of tumor necrosis factor α (TNF-α)” value is listed as “inhibiting production of tumor necrosis factor α (TNF-α)”.
The like results for `CC(C)Cn1cnc2c(N)nc3ccc(-c4ccccc4)cc3c21` [Example 15, 1-Isobutyl-8-phenyl-1H-imidazo[4,5-c]quinolin-4-amine] were, in that order, 203 to 204 °C and “inhibiting production of tumor necrosis factor α (TNF-α)”.
The molecule `CC(C)Cn1cnc2c(N)nc3ccc(-n4cccc4)cc3c21` [Example 481, 1-(2-Methylpropyl)-8-(1-pyrrolyl)-1H-imidazo[4,5-c]quinolin-4-amine] displayed a melting point of 227.5 to 231.5 °C. Further, the “modulate cytokine biosynthesis by inhibiting production of tumor necrosis factor α (TNF-α)” value in series [1] is on record as “inhibiting production of tumor necrosis factor α (TNF-α)”.
